These results are taken from ChEMBL document CHEMBL1152560, “Substituted 2-arylbenzothiazoles as kinase inhibitors: hit-to-lead optimization” (Bioorg Med Chem, 2009).

Experiment [1] concerns the target T1, Tyrosine-protein kinase Mer (Homo sapiens) (UniProt Q12866).
T1 sequence (whole entry): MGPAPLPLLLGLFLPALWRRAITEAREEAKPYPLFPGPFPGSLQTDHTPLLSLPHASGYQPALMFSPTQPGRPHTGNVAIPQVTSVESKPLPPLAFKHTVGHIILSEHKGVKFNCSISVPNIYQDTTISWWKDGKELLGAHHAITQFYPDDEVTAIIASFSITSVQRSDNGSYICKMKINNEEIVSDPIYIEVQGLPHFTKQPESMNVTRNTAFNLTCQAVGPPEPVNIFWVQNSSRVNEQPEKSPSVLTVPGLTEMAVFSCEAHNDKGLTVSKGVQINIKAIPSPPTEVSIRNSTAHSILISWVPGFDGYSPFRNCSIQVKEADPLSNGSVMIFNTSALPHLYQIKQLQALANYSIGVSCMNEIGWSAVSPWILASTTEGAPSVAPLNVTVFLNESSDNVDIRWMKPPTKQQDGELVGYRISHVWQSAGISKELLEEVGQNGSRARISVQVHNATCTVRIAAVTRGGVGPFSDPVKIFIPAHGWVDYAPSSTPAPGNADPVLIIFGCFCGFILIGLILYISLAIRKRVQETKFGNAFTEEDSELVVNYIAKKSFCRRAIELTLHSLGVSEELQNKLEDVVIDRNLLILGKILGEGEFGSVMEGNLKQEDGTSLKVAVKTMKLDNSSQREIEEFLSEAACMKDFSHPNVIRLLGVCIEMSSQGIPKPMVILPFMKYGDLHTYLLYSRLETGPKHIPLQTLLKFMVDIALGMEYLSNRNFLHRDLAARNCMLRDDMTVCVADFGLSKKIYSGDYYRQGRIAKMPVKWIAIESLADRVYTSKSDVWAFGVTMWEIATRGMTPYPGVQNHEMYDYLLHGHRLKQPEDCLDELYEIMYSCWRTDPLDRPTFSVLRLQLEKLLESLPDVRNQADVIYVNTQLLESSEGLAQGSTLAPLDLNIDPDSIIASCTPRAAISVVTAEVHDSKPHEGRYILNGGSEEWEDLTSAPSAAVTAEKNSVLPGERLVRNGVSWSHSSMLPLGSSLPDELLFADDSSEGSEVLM
The experiment in a line: Residual activity of MERTK at 10 uM by microplate scintillation counting.

For experiment [2], the system named is T2, Dual specificity mitogen-activated protein kinase kinase 6 (Homo sapiens), P52564 [S207D,T211D].
T2 sequence (whole entry): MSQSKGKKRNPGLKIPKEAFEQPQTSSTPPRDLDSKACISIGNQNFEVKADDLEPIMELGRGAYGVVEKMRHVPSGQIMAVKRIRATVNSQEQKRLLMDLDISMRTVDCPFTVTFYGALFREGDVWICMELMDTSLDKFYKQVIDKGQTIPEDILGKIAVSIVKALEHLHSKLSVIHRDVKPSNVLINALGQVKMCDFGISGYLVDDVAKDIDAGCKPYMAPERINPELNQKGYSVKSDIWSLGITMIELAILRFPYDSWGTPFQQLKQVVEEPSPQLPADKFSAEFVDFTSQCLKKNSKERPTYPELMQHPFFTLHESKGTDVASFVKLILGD
The experiment in a line: Residual activity of MKK6 S207D/T211D mutant at 1 uM by microplate scintillation counting.

Experiment [3] concerns the target Mitogen-activated protein kinase 1 (Homo sapiens) (UniProt P28482). The experiment is described as follows: Residual activity of ERK2 at 10 uM by microplate scintillation counting.
The target in experiment [4] is Tyrosine-protein kinase JAK2 (Homo sapiens) (UniProt O60674). The experiment is described as follows: Residual activity of JAK2 at 1 uM by microplate scintillation counting.
Sequence of Tyrosine-protein kinase JAK2 (Homo sapiens) (O60674 whole entry): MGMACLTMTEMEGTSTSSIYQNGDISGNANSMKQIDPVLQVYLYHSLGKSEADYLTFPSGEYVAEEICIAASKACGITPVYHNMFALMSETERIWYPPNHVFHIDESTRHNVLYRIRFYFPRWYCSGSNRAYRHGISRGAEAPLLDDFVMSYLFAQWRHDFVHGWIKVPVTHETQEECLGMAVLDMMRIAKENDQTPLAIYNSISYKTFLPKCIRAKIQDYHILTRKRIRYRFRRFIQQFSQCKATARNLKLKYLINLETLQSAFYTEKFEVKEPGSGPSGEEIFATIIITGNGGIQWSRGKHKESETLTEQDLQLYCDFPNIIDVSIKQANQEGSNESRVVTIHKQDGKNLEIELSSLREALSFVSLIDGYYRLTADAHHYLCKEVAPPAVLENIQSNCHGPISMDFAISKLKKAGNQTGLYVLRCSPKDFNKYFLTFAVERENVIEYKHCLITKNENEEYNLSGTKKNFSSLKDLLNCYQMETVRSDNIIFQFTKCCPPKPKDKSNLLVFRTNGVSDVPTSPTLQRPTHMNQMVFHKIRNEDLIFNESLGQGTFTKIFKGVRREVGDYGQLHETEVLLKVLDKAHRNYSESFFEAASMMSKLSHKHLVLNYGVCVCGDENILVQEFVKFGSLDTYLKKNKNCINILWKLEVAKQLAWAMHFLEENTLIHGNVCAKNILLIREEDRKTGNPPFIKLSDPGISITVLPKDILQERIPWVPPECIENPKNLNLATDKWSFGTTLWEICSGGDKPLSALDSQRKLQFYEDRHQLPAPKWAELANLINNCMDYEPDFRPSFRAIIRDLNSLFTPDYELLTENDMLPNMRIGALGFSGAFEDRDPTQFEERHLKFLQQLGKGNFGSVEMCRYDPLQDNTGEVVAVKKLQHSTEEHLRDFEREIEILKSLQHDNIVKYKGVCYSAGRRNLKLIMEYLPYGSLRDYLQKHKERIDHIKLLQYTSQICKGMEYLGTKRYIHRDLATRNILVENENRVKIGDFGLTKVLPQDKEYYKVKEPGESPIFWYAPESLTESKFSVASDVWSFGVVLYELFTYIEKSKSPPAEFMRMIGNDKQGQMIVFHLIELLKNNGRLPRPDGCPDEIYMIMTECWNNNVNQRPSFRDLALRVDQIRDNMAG
In experiment [5] the target is Ephrin type-A receptor 7 (Homo sapiens) (UniProt Q15375). The experiment in a line: Residual activity of EPHA7 at 1 uM by microplate scintillation counting.
Sequence of Ephrin type-A receptor 7 (Homo sapiens) (Q15375 28-998 limits assumed): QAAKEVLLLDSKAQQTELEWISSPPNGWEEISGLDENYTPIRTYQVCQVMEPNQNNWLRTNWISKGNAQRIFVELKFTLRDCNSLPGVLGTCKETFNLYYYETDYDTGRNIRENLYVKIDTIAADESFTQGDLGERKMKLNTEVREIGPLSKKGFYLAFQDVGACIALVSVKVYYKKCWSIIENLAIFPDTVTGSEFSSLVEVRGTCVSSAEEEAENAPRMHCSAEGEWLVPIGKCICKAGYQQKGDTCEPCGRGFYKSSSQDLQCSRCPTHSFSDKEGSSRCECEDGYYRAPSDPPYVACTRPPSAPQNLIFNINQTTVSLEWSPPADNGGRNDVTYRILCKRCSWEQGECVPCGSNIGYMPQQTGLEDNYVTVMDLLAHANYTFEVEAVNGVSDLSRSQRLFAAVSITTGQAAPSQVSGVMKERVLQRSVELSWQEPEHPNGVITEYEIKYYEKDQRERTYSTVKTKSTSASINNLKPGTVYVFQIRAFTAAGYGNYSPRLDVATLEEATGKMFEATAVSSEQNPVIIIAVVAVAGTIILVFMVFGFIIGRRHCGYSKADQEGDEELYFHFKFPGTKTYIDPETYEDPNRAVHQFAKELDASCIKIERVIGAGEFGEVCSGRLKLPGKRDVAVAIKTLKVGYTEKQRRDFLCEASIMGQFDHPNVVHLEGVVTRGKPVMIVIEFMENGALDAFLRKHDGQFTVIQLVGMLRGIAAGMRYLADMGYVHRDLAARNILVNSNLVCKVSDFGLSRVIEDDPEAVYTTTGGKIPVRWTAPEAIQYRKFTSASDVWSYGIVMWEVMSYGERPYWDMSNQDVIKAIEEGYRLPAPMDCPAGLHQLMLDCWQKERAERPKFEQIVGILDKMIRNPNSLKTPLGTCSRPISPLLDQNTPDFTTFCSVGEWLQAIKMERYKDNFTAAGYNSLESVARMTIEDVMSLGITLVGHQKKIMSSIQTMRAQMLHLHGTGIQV
Experiment [6] concerns the target T3, Ephrin type-B receptor 3 (Homo sapiens) (UniProt P54753).
T3 sequence (whole entry): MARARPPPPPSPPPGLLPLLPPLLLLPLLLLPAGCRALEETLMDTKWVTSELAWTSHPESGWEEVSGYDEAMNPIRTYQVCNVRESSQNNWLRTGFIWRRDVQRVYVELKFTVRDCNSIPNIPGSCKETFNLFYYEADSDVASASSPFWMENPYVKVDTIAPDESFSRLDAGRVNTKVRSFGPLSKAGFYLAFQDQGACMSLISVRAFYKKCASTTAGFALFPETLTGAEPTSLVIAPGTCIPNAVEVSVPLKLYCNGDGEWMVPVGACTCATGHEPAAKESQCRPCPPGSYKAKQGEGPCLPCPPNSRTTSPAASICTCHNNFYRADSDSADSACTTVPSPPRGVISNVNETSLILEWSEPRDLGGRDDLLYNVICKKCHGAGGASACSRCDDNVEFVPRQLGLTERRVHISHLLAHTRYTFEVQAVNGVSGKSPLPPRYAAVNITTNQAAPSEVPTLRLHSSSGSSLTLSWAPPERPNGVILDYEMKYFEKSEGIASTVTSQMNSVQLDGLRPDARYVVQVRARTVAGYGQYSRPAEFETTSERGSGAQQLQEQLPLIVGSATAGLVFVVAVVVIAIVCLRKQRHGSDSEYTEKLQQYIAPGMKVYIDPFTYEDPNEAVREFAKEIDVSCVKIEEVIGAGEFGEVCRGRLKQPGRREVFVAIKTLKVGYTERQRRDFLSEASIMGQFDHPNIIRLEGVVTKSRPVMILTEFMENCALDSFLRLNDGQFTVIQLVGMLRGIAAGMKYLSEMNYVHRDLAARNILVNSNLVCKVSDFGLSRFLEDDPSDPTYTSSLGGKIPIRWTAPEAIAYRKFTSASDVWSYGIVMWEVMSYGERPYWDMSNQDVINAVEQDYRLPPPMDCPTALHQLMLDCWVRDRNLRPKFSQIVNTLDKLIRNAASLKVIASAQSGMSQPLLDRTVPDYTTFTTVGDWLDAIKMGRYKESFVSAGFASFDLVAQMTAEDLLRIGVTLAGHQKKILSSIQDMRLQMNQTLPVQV
The experiment in a line: Residual activity of EPHB3 at 0.1 uM by microplate scintillation counting.

The structures appear in SMILES notation.

Sequence of Mitogen-activated protein kinase 1 (Homo sapiens) (P28482 whole entry): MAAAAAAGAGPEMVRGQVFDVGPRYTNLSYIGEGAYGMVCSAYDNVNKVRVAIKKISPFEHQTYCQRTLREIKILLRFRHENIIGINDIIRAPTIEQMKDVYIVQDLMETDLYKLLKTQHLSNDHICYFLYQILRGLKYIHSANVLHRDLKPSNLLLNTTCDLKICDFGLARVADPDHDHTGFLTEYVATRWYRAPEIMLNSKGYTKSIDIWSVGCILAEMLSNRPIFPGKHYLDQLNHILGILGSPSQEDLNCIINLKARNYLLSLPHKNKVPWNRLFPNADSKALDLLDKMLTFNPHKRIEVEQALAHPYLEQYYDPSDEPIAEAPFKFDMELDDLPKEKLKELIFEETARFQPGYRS

`COc1cc2c(Oc3ccc(-c4nc5ccccc5s4)cc3)ncnc2cc1OCCCN1CCN(C)CC1`: the residual activity in experiment [1] came out at 3%; in experiment [2], 84%; in experiment [3], 161%; in experiment [4], 96%; in experiment [5] it was 102%; in experiment [6], 112%.
For the compound `COc1cc2c(Oc3ccc(-c4nc5ccccc5s4)cc3)ncnc2cc1OCCCN1CCCC1`, the residual activity is 1% in experiment [1]; 100% in experiment [2]; 144% in experiment [3]; 95% in experiment [4]; 114% in experiment [5]; 102% in experiment [6].
Consider `COc1cc2c(Oc3ccc(-c4nc5ccccc5s4)cc3F)ncnc2cc1OCCCN1CCN(C)CC1`, for which the residual activity turned out to be 2% in experiment [1]; 103% in experiment [2]; 163% in experiment [3]; 97% in experiment [4]; 94% in experiment [5]; 117% in experiment [6].
